Measurements reported in the supplement of paper PMC8024199.
± gives the standard deviation of the averaged measurements.

Columns and labels:
Experiment in all cases: drug sensitivity score (DSS) (DSS score); higher = more sensitive (stronger growth inhibition); extreme values may be limits of the assay
Ly-BP RUNX1 wild-1 = test system: Ly-BP RUNX1 wild-1
Experimental: (§1)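 Ex vivo drug sensitivity and resistance testing of primary bone marrow mononuclear cells from blast-phase CML patients (RUNX1-mutated and RUNX1 wild-type) against an oncology drug library. Each drug was tested at five concentrations over a 10,000-fold range, with viability normalised to DMSO controls. The drug sensitivity score (DSS) was computed from the dose-response curve.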

Ly-BP RUNX1 p.R204Q = test system: Ly-BP RUNX1 p.R204Q
Experimental: as §1

Mye-BP RUNX1 p.R162K = test system: Mye-BP RUNX1 p.R162K
Experimental: as §1

Mye-BP RUNX1 p.K117* = test system: Mye-BP RUNX1 p.K117*
Experimental: as §1

My-BP RUNX1 wild-2 = test system: My-BP RUNX1 wild-2
Experimental: as §1

My-BP RUNX1 wild-4 = test system: My-BP RUNX1 wild-4
Experimental: as §1

Mye-BP RUNX1 p.R107C = test system: Mye-BP RUNX1 p.R107C
Experimental: as §1

My-BP RUNX1 wild-3 = test system: My-BP RUNX1 wild-3
Experimental: as §1

[1] = test system: Ba/F3 P210-BCR-ABL1 RUNX1-/- (mouse)
Method in brief: (§2)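 Each value is a drug sensitivity score derived from CellTiter-Glo luminescence scaled between vehicle and positive-control wells. Mouse Ba/F3 clones, CRISPR/Cas9-edited at a target exon or edited controls, were seeded at 10,000 cells per well in RPMI with 10% FBS and treated for 72 h at 37 °C and 5% CO2. Compounds from a 528-compound library were tested at five concentrations over a 10,000-fold range, and scores were averaged over two replicates.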

[2] = test system: Ba/F3 P210-BCR-ABL1 RUNX1wt/wt control (mouse)
Method in brief: as §2

[3] = test system: Ba/F3 P210-BCR-ABL1 RUNX1-/mut (mouse)
Method in brief: as §2

Row | Structure (SMILES) | drug sensitivity score (Ly-BP RUNX1 wild-1) | drug sensitivity score (Ly-BP RUNX1 p.R204Q) | drug sensitivity score (Mye-BP RUNX1 p.R162K) | drug sensitivity score (Mye-BP RUNX1 p.K117*) | drug sensitivity score (My-BP RUNX1 wild-2) | drug sensitivity score (My-BP RUNX1 wild-4) | drug sensitivity score (Mye-BP RUNX1 p.R107C) | drug sensitivity score (My-BP RUNX1 wild-3) | drug sensitivity score [1] | drug sensitivity score [2] | drug sensitivity score [3]
1 | CC(C)(C#N)c1cc(Cn2cncn2)cc(C(C)(C)C#N)c1 [Anastrozole] | 0 | 0 | 0 | 0 | 0 | 0 | 0 | 0 | 0 | 0 | 0.15 ± 0.21
2 | CNC(=O)c1ccccc1Sc1ccc2c(/C=C/c3ccccn3)n[nH]c2c1 [Axitinib] | 8.3 | 20 | 19.6 | 8.2 | 7.94 | 6.16 | 13.1 | 0.522 | 17 ± 0.85 | 6.3 ± 0.99 | 11.2 ± 0.71
3 | Nc1ncn([C@@H]2O[C@H](CO)[C@@H](O)[C@H]2O)c(=O)n1 [Azacitidine] | 2.1 | 0.999 | 5.29 | 3.7 | 1.76 | 0 | 0 | 0 | 8.95 ± 0.071 | 4.35 ± 0.92 | 7.3 ± 0.71
4 | CC[C@@H]1C(=O)N(C)c2cnc(Nc3ccc(C(=O)NC4CCN(C)CC4)cc3OC)nc2N1C1CCCC1 [BI 2536] | 9.4 | 9.17 | 19.2 | 16.7 | 12.9 | 6.93 | 8.5 | 4.25 | 15.7 ± 0.49 | 8.8 ± 0.14 | 15.2 ± 0.21
5 | COc1c(C)cnc(Cn2cnc3c(Cl)nc(N)nc32)c1C [BIIB021] | 20.9 | 15.6 | 23.9 | 22.3 | 20.5 | 11.4 | 21.1 | 4.85 | 24.8 ± 2.2 | 19.5 ± 0.28 | 22.8 ± 1.8
6 | O=C(/C=C/c1cccc(S(=O)(=O)Nc2ccccc2)c1)NO [Belinostat] | 21.3 | 25.9 | 20.8 | 20.4 | 16.5 | 10.6 | 23.5 | 16.8 | 23.5 ± 1.6 | 19.1 ± 0.99 | 21.3 ± 0.42
7 | C=C(c1ccc(C(=O)O)cc1)c1cc2c(cc1C)C(C)(C)CCC2(C)C [Bexarotene] | 6.4 | 4.2 | 9.06 | 0 | 0 | 4.35 | 0.4 | 0 | 0 | 0 | 6.95 ± 4
8 | CCNC(=O)CCC/C=C\C[C@@H]1[C@@H](/C=C/[C@@H](O)CCc2ccccc2)[C@H](O)C[C@@H]1O [Bimatoprost] | 0 | 0 | 0 | 0 | 0 | 0 | 0 | 0 | 0 | 0 | 0.1 ± 0.14
9 | Cc1c(N)nc([C@H](CC(N)=O)NC[C@H](N)C(N)=O)nc1C(=O)N[C@H](C(=O)N[C@H](C)[C@@H](O)[C@H](C)C(=O)N[C@H](C(=O)NCCc1nc(-c2nc(C(=O)NCCC[S+](C)C)cs2)cs1)[C@@H](C)O)[C@@H](OC1OC(CO)C(O)C(O)C1OC1OC(CO)C(O)C(OC(N)=O)C1O)c1cnc[nH]1 (some centres undefined) [Bleomycin] | 9.3 | 9.34 | 2.68 | 4.9 | 2.1 | 0 | 3.5 | 0 | 2.6 ± 1.1 | 0 | 3.55 ± 4.6
10 | CC(C)C[C@H](NC(=O)[C@H](Cc1ccccc1)NC(=O)c1cnccn1)B(O)O [Bortezomib] | 29.3 | 15.1 | 29.6 | 29.1 | 24.7 | 36 | 29.1 | 22.2 | 31.6 ± 0.85 | 31.8 ± 1.2 | 28.4 ± 1.1
11 | COc1cc(Nc2c(C#N)cnc3cc(OCCCN4CCN(C)CC4)c(OC)cc23)c(Cl)cc1Cl [Bosutinib] | 16.7 | 2.2 | 32.1 | 10.1 | 9.52 | 9.16 | 10.9 | 7.07 | 31.9 ± 0.64 | 18.6 ± 0.64 | 25.45 ± 0.071
12 | CCC/C=C/C=C/C(=O)O[C@H]1/C(=C/C(=O)OC)C[C@H]2C[C@H]([C@@H](C)O)OC(=O)C[C@H](O)C[C@@H]3C[C@H](OC(C)=O)C(C)(C)[C@](O)(C[C@@H]4C/C(=C/C(=O)OC)C[C@H](/C=C/C(C)(C)[C@]1(O)O2)O4)O3 [Bryostatin 1] | 8.4 | 0 | 0 | 25.4 | 10.3 | 0 | 0 | 3.84 | 5.45 ± 0.21 | 0.9 ± 1.3 | 8.55 ± 5.2
13 | C=CC(=O)Nc1cc2c(Nc3ccc(F)c(Cl)c3)ncnc2cc1OCCCN1CCOCC1 [Canertinib] | 11.3 | 9.78 | 13 | 10.8 | 7.36 | 9.27 | 11.6 | 7.85 | 9.1 ± 0.28 | 5.2 ± 0.14 | 7.6 ± 1.4
14 | CCCCCOC(=O)Nc1nc(=O)n([C@@H]2O[C@H](C)[C@@H](O)[C@H]2O)cc1F [Capecitabine] | 0 | 0 | 0 | 0 | 0 | 0 | 0 | 0 | 0 | 0 | 0.15 ± 0.21
